# Values joined by “and” are separate entries in the source; they are usually repeats but may differ in a detail not shown here. Identical values can stand only once. “Also recorded” adds a separate entry of the source. Like-named read-outs stand apart in the source and are kept apart here.
# Key:
# [1] = tested on: renal arteries, hepatic artery, splenic artery, and the left gastric artery; conditions: patient A; for Body weight: base 103 kg; for 24-Hour blood pressure, DBP / 24-Hour blood pressure, SBP: average 24-hour ambulatory; for 24-Hour blood pressure, DBP: base 109; for 24-Hour blood pressure, SBP: base 164; for High-density lipoprotein (HDL): base 39 mg/dL; for Triglycerides: base 336 mg/dL
# Procedure: The targeted arteries for their treatment were renal arteries, hepatic artery, splenic artery, and the left gastric artery.
# In the procedure, modest sedation per the institution's standard practice was used and no general anesthesia was used. The arteries were engaged using a 7F guiding catheter, introduced via the femoral artery. Angiography was performed of the arteries before intervention. All four arteries were treated in the same procedure. The treatment started at upper body arteries in the order of splenic, hepatic, left gastric, left renal, and right renal arteries. After the initial angiography survey of the hepatic artery, splenic artery and left gastric artery, the rapid-exchange version of the triple-needle single-balloon catheter was advanced through the guiding catheter and into the artery over a guiding wire.
# The maximum catheter needle span diameter was about 12 mm, and the span diameter was adjustable per artery diameter. […] The function of this balloon was to center the distal head/shaft without over-stretching the artery.
# The infusion time was within 10 seconds for each application. […] The treatment steps were repeated for the second treatment (balloon inflation, needle deployment, infusion ablation, needle withdrawal, balloon deflation). The total volume of the alcohol used in the two treatments was 1.2 mL for the splenic artery.
# The same treatment method and procedure steps as in the treatment of the splenic artery were used for common hepatic artery ablation. The catheter was replaced with a fresh catheter for the common hepatic artery ablation. There were two treatments total at about 15 mm apart of each other (between the treatment sites) for the common hepatic artery with the same ablation dosage of 0.6 mL. The total volume of the alcohol used for the hepatic artery ablation was 1.2 mL. After the hepatic treatment, the catheter was placed into the left gastric artery for next ablation treatment. Again, the same treatment method and procedure was used, with the exception that one ablation treatment of 0.6 mL of the alcohol was applied for the left gastric artery. Angiography was performed after the withdrawal of the triple-needle balloon delivery catheter.
# After the ablation treatments of the three arteries above, angiography was performed of the renal arteries before intervention. The suitable branches and main arteries were assessed and predetermined for treatment. After the assessment, the triple-needle balloon delivery catheter was advanced through the guiding catheter and over the guiding wire into the branch artery of left renal arteries and stopped just beyond the bifurcated area.
# [2] = tested on: hepatic, splenic, celiac, right renal and left renal arteries; conditions: patient B; for average 24-hour ambulatory blood pressure, DBP: base 79; for average 24-hour ambulatory blood pressure, SBP: base 136
# Procedure: (§1) In another example, multiple arteries/tissues were treated for hypertension. […] Patient B had 5 years of hypertension history. Patient B went through the same procedure and ablation treatment method as patient A in Example 3.
# [3] = tested on: hepatic, splenic, celiac, right renal and left renal arteries; conditions: patient B; for fasting glucose: base 186 mg/dL
# Procedure: as §1
# In another example, multiple arteries/tissues were treated for diabetes.
# [4] = tested on: hepatic, splenic, celiac, right renal and left renal arteries; conditions: patient B; for Body weight: base 83 kg
# Procedure: as §1
# In another example, multiple arteries/tissues were treated for managing body weight. The patient B with 3 years of obesity history had their body weight improved after the ablation procedure. The treated multiple arteries were hepatic, splenic, celiac, right renal and left renal arteries.
# renal artery = assay: Pre-clinical trial: renal artery ethanol ablation (renal denervation) with triple-needle single-balloon catheter
# hepatic artery = assay: Pre-clinical trial: hepatic artery ethanol ablation (hepatic denervation) with triple-needle single-balloon catheter
# [5] = maintained at 3 months follow-up
structure (smiles),measurement,setting,value
CCO [ethanol],Body weight,[1]; 1 mo post-procedure,95.6 kg
same,"24-Hour blood pressure, DBP",[1]; 1 mo,87 mmHg
same,"24-Hour blood pressure, SBP",[1]; 1 mo,140 mmHg
same,High-density lipoprotein (HDL),[1]; 1 mo,43 mg/dL
same,Triglycerides,[1]; 1 mo,139 mg/dL
same,Body weight,[1]; 2 wk post-procedure,96.2 kg
same,High-density lipoprotein (HDL),[1]; 2 wks,42 mg/dL
same,Triglycerides,[1]; 2 wks,160 mg/dL
same,TG/HDL ratio,"[1]; 3-month follow-up, 8.6 at baseline, normal range <5",4.2
same,"24-Hour blood pressure, DBP",[1]; 3 mo,84 mmHg
same,"24-Hour blood pressure, SBP",[1]; 3 mo,141 mmHg
same,HbA1c value change vs baseline,"[1]; 3 months follow-up, absolute change",~−1%
same,Body weight,[1]; 3 mos post-procedure,96.2 kg
same,High-density lipoprotein (HDL),[1]; 3 mos,40 mg/dL
same,Triglycerides,[1]; 3 mos,167 mg/dL
same,"Blood sugar level, HbA1c","[1]; 3 mos, base 7.5%",6.6%
same,"weight loss, reduction","[1]; since week 3 (2 wk time point), maintained at 3 months",about 7%
same,triglyceride level reduction,[1]; two weeks follow-up,about 50%
same,diastolic (DBP) blood pressure drop from the baseline,[1]; [5],~20%
same,systolic (SBP) blood pressure drop from the baseline,[1]; [5],about 14%
same,"average 24-hour ambulatory blood pressure, DBP",[2]; 1 mo,61 mmHg
same,"average 24-hour ambulatory blood pressure, SBP",[2]; 1 mo,107 mmHg
same,diastolic (DBP) blood pressure drop from the baseline,[2]; 1 month follow-up,~23%
same,systolic (SBP) blood pressure drop from the baseline,[2]; 1 month follow-up,about 21%
same,"average 24-hour ambulatory blood pressure, DBP",[2]; 3-mo,66 mmHg
same,"average 24-hour ambulatory blood pressure, SBP",[2]; 3-mo,115 mmHg
same,DBP percentage drop from baseline level,[2]; 3 month follow-up,about 15%
same,SBP percentage drop from baseline level,[2]; 3 month follow-up,about 15%
same,fasting glucose level change from baseline,[3]; 1-month follow-up,−50%
same,fasting glucose,[3]; 1 mo,92 mg/dL
same,fasting glucose level change from baseline,[3]; 2 weeks follow-up,−32%
same,fasting glucose,[3]; 2 wks,127 mg/dL
same,"HbA1c improvement from the baseline, absolute value",[3]; 3 months after the procedure,−2.1%
same,HbA1c percent reduction,"[3]; 3 months after the procedure, relative to baseline",~26%
same,fasting glucose level reduction from the baseline,[3]; 3 months follow-up,−41%
same,fasting glucose,[3]; 3 mos,110 mg/dL
same,Blood sugar HbA1c,"[3]; 3 mos, base 8.1%",6.0%
same,Body weight,[4]; 1 mo,79.9 kg
same,initial body weight loss from the baseline,[4]; 2 weeks follow-up,−4.5%
same,Body weight,[4]; 2 wks,79.3 kg
same,Body weight,[4]; 3 mos,79.1 kg
same,histopathologic evaluation of renal arteries and surrounding tissues,"renal artery; after ethanol ablation, FIG. 11",renal nerve injury; also recorded: severed renal nerves necrosis
same,renal arterial spasms (post-ablation renal angiograms),renal artery; during and after the infusion treatment,no significant renal arterial spasms
same,"average renal tissue NE content, treated side","renal artery; porcine renal cortex, two weeks after treatment, HPLC, control side 87 ng/g",4.9 ng/g
same,reduction in renal norepinephrine concentration,"renal artery; porcine, two weeks after treatment, treated side vs contralateral untreated renal artery side (control 87 ng/g), total 1.8 mL",94%
same,gross necropsy,renal artery; two weeks after treatment,all treatment related organs were normal
same,arterial spasms (hepatic angiograms),"hepatic artery; during and after the infusion treatment, both animals",no significant arterial spasms
same,average liver NE concentration reduction,"hepatic artery; one value per animal (two animals), two weeks after treatment, vs untreated control animal, 2 x 0.6 mL",85% and 94%
same,gross necropsy,hepatic artery; two weeks after the treatment,all treatment related organs were normal

# Reference: patent US20220233238A1, “DELIVERY CATHETER AND METHOD OF DISEASE TREATMENT” (Neurotronic, Inc., priority 2019, published 2022)
